The text below walks through data of the NIST ThermoML archive (doi:10.1021/acs.jced.7b00278).

A short description of series [1]: wn = mass fraction of the nth substance listed. The following applies: 298.15 K, 101 kPa, Liquid, Vibrating tube method.
Series [2] in a line: refractive index (Na D-line) (dimensionless). The settings on record: 298.15 K; 101.33 kPa; Liquid; Standard Abbe refractometry.
For series [3] the following is noted: 298.15 K; 101.33 kPa; Liquid; Vibrating tube method.

The structures appear in SMILES notation. ± gives the expanded uncertainty stated by the source.

As to `CCCC(=O)[O-].[NH3+]CCO` [2-hydroxy ethylammonium butanoate] + O, the mass density (commonly the mass of a sample divided by its volume) in series [1] (w1 = 0.0115) amounted to 999.43 ± 2.2 kg/m3; in series [1] (w1 = 0.05) it was 1006.63 ± 8.8 kg/m3; in series [1] (w1 = 0.101), 1016.39 ± 11 kg/m3; in series [1] (w1 = 0.2011), 1033.12 ± 8.9 kg/m3; in series [1] (w1 = 0.3051), 1046.73 ± 7.6 kg/m3; in series [1] (w1 = 0.3993), 1058.12 ± 7.3 kg/m3.
Regarding `CCCC(=O)[O-].[NH3+]CCO` [2-hydroxy ethylammonium butanoate], the refractive index (commonly a measure of how strongly the sample bends light) in series [2] stood at 1.4659 ± 0.0009. Moreover, in series [3], the mass density worked out at 1075.12 ± 6.3 kg/m3.
